Assay results published in patent US20240279191A1, “SMALL MOLECULE INHIBITORS OF TEAD-YAP” (The General Hospital Corporation, priority 2021, published 2024).
Like-named read-outs stand apart in the source and are kept apart here.

Tests used:
[1] = Metabolic stability in mouse hepatic microsomes (Scripps Florida DMPK Core); type: in vitro ADME; details: for half-life / microsomal CLint: mouse, liver microsomes; for half-life: 1 mg/mL hepatic microsomes; for microsomal CLint: hepatic microsomes, read-out: Intrinsic Clearance, Mouse (Clint); for metabolic stability (in words): Tables E1 and E2, human and mouse microsomes
[2] = system: H226 cells; test: Cell proliferation assay (MTT), H226; details: 6 days, FIG. 8C
[3] = molecular target: TEAD2 (Homo sapiens, UniProt Q15562); test: Inhibition of TEAD2 auto-palmitoylation in vitro; details: FIG. 1; 0.05 and 0.5 μM for 30 mins
Chain of TEAD2 (Q15562 whole entry): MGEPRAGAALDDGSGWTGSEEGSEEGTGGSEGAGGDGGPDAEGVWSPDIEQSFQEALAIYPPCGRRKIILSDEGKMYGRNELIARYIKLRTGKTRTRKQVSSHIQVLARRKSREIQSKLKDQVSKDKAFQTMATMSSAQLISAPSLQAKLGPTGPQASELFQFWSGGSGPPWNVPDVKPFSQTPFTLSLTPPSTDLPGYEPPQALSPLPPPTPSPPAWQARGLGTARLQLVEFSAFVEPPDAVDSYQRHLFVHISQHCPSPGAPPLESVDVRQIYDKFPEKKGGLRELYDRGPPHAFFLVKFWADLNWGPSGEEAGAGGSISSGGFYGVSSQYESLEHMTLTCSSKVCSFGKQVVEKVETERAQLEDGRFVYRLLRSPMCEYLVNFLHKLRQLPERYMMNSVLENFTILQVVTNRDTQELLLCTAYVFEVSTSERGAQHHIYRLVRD

[4] = Pharmacokinetics / oral bioavailability in male CD-1 mice; type: in vivo; details: for AUC(0-inf): Table F2A; for half-life: read-out: t1/2, β (converted)
Description: Example G. Oral Bioavailability of MGH-CP-715 in Male CD-1Mice

[5] = Metabolic stability MLM; details: for Met stab MLM, 15 min / Met stab MLM, 60 min: % parent remained per Table G2
[6] = Aqueous solubility (Aq Sol); type: physicochemical
[7] = system: TEAD; test: WB primary assay (SAR tables F1, F3A); type: biochemical
[8] = system: H226; test: H226 growth inhibition (SAR tables); type: cell-based; details: for GI50: Homo sapiens, NCI-H226
[9] = system: KNS62; test: KNS62 growth inhibition (SAR tables); type: cell-based
[10] = Metabolic stability CLint, human (Tables H1, H2)
[11] = logD 7.4; details: pH 7.4
[12] = Metabolic stability CLint, mouse (Tables H1, H2)
[13] = Metabolic stability in human hepatic microsomes (Scripps Florida DMPK Core); type: in vitro ADME; details: liver microsomes; for half-life: 1 mg/mL hepatic microsomes; for microsomal CLint: hepatic microsomes, read-out: Intrinsic Clearance, Human (Clint)
[14] = physchem; details: pH 7.4
[15] = in vitro; details: mouse
[16] = in vitro; details: human
[17] = male, CD-1, mouse, in vivo, 1 mg/Kg IV
[18] = male, CD-1, mouse, in vivo, 10 mg/Kg PO

Compound: O=C(Nc1ccccc1)N1CCN(C(=O)c2cccc(OCCC3CCOCC3)c2)CC1 [TM45, N-phenyl-4-(3-(2-(tetrahydro-2H-pyran-4-yl)ethoxy)benzoyl)piperazine-1-carboxamide]
- half-life [1]: 11.2 min
- microsomal CLint [1]: 62 µL/min/mg
- H226 anti-proliferative potency relative to TM2 (in words) [2]: less potent than TM2
- inhibition of TEAD2 auto-palmitoylation (in words) [3]: significantly decrease the activities

Compound: O=C(Nc1ccccc1)N1CCN(Cc2cccc(OCCC3CCCCC3)c2)CC1 [MGH-CP-715]
- F (oral bioavailability) ([4]; 10 mg/Kg PO versus 1 mg/Kg IV): ~5.7%
- bioavailability ([4]; male, CD-1, mouse, in vivo, oral, 10 mg/Kg, 10 mg/Kg PO versus 1 mg/Kg IV, read-out: F (oral bioavailability)): ~5%
- AUC(0-t) [4, 17]: 663 ng·h/mL
- MRT [4, 17]: 88.2 min
- clearance [4, 17]: 22.6 mL/min/kg
- AUC(0-inf) [4, 17]: 736 ng·h/mL
- Cmax ([4]; male, CD-1, mouse, in vivo, 1 mg/Kg IV, read-out: C0/Cmax (C0)): 834 ng/mL
- Vd ([4]; male, CD-1, mouse, in vivo, 1 mg/Kg IV, read-out: VSS): 3.61 L/kg
- half-life [4, 17]: 223 min
- AUC(0-t) [4, 18]: 394 ng·h/mL
- MRT [4, 18]: 157 min
- Tmax [4, 18]: 15 min
- AUC(0-inf) [4, 18]: 422 ng·h/mL
- Cmax ([4]; male, CD-1, mouse, in vivo, 10 mg/Kg PO, read-out: C0/Cmax (Cmax)): 108 ng/mL
- half-life [4, 18]: 112 min
- clearance (in words) ([4]; mouse, in vivo): low
- volume of distribution (in words) ([4]; mouse, in vivo): high
- % Parent remained MLM, 15 min ([5]; 15 min, Table G2): 66%
- Met stab MLM, 15 min ([5]; 15 min): 66%
- % Parent remained MLM, 60 min ([5]; 60 min, Table G2): 15%
- Met stab MLM, 60 min ([5]; 60 min): 15%
- Aq Sol [6]: <2 µM
- WB: % inh. @ 1 μM [7]: 35%
- WB: % inh. @ 10 μM [7]: 95%
- H226: value at 1 μM ([8]; 1 μM): 16
- H226: value at 10 μM ([8]; 10 μM): 69
- KNS62: value at 1 μM [9]: 4
- KNS62: value at 10 μM [9]: 57

Compound: O=C(Nc1ccccc1)N1CCN(C2(c3cccc(OCCc4ccccc4)c3)COC2)CC1 [TM97]
- half-life [1]: 1.7 min
- microsomal CLint [1]: 415 µL/min/mg

Compound: O=C(Oc1ccccc1)N1CCN(C(=O)c2cccc(OCCC3CCCCC3)c2)CC1 [MGH-CP-714]
- Met stab MLM, 15 min ([5]; 15 min): 29%
- Met stab MLM, 60 min ([5]; 60 min): < 5%
- Aq Sol [6]: <2 µM
- WB: % inh. @ 1 μM [7]: 16%
- WB: % inh. @ 10 μM [7]: 94%
- GI50 [8]: 2.64 µM
- KNS62: value at 1 μM [9]: 10
- KNS62: value at 10 μM [9]: 48

Compound: CC1CN(C(=O)Nc2ccccc2)CCN1C(=O)c1cccc(OCCC2CCCCC2)c1 (stereo not drawn) [MGH-CP-710]
- Met stab MLM, 15 min ([5]; 15 min): 41%
- Met stab MLM, 60 min ([5]; 60 min): < 5%
- Aq Sol [6]: <2 µM
- WB: % inh. @ 1 μM [7]: 54%
- WB: % inh. @ 10 μM [7]: 81%
- GI50 [8]: 1.04 µM
- KNS62: value at 1 μM [9]: 35
- KNS62: value at 10 μM [9]: 51

Compound: C[C@@H]1CN(C(=O)Nc2ccccc2)[C@@H](C)CN1C(=O)c1cccc(OCCC2CCCCC2)c1 [MGH-CP-709]
- Met stab MLM, 15 min ([5]; 15 min): 26%
- Met stab MLM, 60 min ([5]; 60 min): < 5%
- Aq Sol [6]: 2 µM
- WB: % inh. @ 1 μM [7]: 45%
- WB: % inh. @ 10 μM [7]: 77%
- GI50 [8]: 1.97 µM
- KNS62: value at 1 μM [9]: 28
- KNS62: value at 10 μM [9]: 46

Compound: Nc1ccc(NC(=O)N2CCN(C(=O)c3cccc(OCCC4CCCCC4)c3)CC2)cc1 [TM112, N-(4-aminophenyl)-4-(3-(2-cyclohexylethoxy)benzoyl)piperazine-1-carboxamide]
- H226 anti-proliferative potency relative to TM2 (in words) [2]: less potent than TM2

Compound: O=C(NCCc1cccc(F)c1)C1CCN(C(=O)Oc2ccccc2)CC1
- CLint scaled [10]: 54 mL/min/kg
- logD [11]: 2.59
- CLint scaled [12]: 87 mL/min/kg

Compound: O=C(Nc1ccccc1)N1CCN([S+]([O-])c2cccc(OCCc3ccccc3)c2)CC1 (stereo not drawn) [TM100]
- metabolic stability (in words) [1]: improved metabolic stability
- half-life [1]: 9.6 min
- microsomal CLint [1]: 72 µL/min/mg
- half-life [13]: 5.8 min
- microsomal CLint [13]: 120 µL/min/mg

Compound: O=C(Nc1ccccc1)C1CCN(C(=O)Oc2cccnc2)CC1
- CLint human [10]: no depletion (stable)
- logD [11]: 2.16
- CLint scaled [12]: 47 mL/min/kg

Compound: O=C(Nc1ccccc1)N1C[C@@H]2C[C@H]1CN2C(=O)c1cccc(OCCC2CCCCC2)c1 [MGH-CP-717]
- MLM stability (in words) [5]: poor
- Met stab MLM, 15 min ([5]; 15 min): 6%
- Met stab MLM, 60 min ([5]; 60 min): < 5%
- activity in primary assay (in words) [7]: inactive
- WB: % inh. @ 1 μM [7]: −2%
- WB: % inh. @ 10 μM [7]: 22%

Compound: NC(=O)c1cncc(OC(=O)N2CCC(CCc3cccc(C(=O)N4CCCC4)c3)CC2)c1
- logD [14]: 2.6
- CLint scaled [15]: 90 mL/min/kg
- CLint scaled [16]: 86 mL/min/kg

Compound: O=C(Nc1ncccn1)N1CCN(C(=O)c2cccc(OCCC3CCCCC3)c2)CC1 [TM23]
- CLint scaled [10]: 109 mL/min/kg
- logD [11]: 2.38
- CLint scaled [12]: 156 mL/min/kg

Compound: O=C(Nc1ccccc1)N1CCN(C(=O)c2ccnc(OCCC3CCCCC3)c2)CC1 [MGH-CP-716]
- MLM stability (in words) [5]: not improved
- Met stab MLM, 15 min ([5]; 15 min): 40%
- Met stab MLM, 60 min ([5]; 60 min): < 5%
- WB: % inh. @ 1 μM [7]: 59%
- WB: % inh. @ 10 μM [7]: 96%
- activity in cellular assays (in words) [8]: active
- GI50 [8]: 0.236 µM
- KNS62: value at 1 μM [9]: 54
- KNS62: value at 10 μM [9]: 60

Compound: O=C(Oc1ccccc1)N1CCN(Cc2cccc(OCCC3CCCCC3)c2)CC1 [MGH-CP-718]
- Met stab MLM, 15 min ([5]; 15 min): 59%
- Met stab MLM, 60 min ([5]; 60 min): 13%
- MLM stability (in words) ([5]; mouse, microsomes): moderately stable
- activity in primary assay (in words) [7]: inactive
- WB: % inh. @ 1 μM [7]: −4%
- WB: % inh. @ 10 μM [7]: 11%

Compound: Nc1cccc(NC(=O)N2CCN(C(=O)c3cccc(OCCC4CCCCC4)c3)CC2)c1 [TM93]
- metabolic stability (in words) [1]: improved metabolic stability
- half-life [1]: 16.7 min
- microsomal CLint [1]: 41 µL/min/mg
- half-life [13]: 11.1 min
- microsomal CLint [13]: 62 µL/min/mg
